Laboratory results published in patent publication US20260083865A1, “PROSTATE SPECIFIC MEMBRANE ANTIGEN (PSMA) LIGANDS AND USE THEREOF” (priority 2022, published 2026).
“Also recorded” adds a separate entry of the source. Blank lines part the entries; values can stand above or below the compound they belong to. Numbered stars: 1 amine (or outer) side, 2 acyl side, 3 side chain; on linkers, the order of the positions; unused ones are H or OH. Bridge positions count the residues as written; N and C are the ends. Square brackets hold non-standard residues; d marks the D form. Peptide text beside a SMILES is read from it. * marks the point of attachment. DOTA = O=C(O)CN1CCN(CC(=O)O)CCN(CC(=O)*)CCN(CC(=O)O)CC1; Phe(4-Cl) = N[C@@H](Cc1ccc(Cl)cc1)C(=O)O; Arg(Me) = CNC(=N)NCCC[C@H](N)C(=O)O; X1 = O=C(CC1CCN([*:1])CC1)[*:2]; Lys(Me) = CNCCCC[C@H](N)C(=O)O; Tle = CC(C)(C)[C@H](N)C(=O)O; Nle = CCCC[C@H](N)C(=O)O; Aib = CC(C)(N)C(=O)O

Tests used:
[1] = test system: PSMA-expressing ST1273 tumors; assay: Efficacy study in mice with PSMA-expressing ST1273 tumors (tumor volume); assay type: in vivo
Source text: The efficacy of ^177Lu-PSM-0194 (PSM-0194 labeled with radioactive Lutetium-177) was investigated in the PDX tumor model ST1273. […] The ST1273 PDX model was developed at XenoSTART (San Antonio, Texas, USA) and PSMA expression was confirmed by immunohistochemistry.
ST1273 tumor fragments were transplanted subcutaneously at the right flank of female NMRI nu/nu mice. In brief, the parent animals with ST1273 PDX tumors for transplantation were euthanized by cervical dislocation. The tumors were resected and trimmed to remove the connective tissues. The tumors were put in a Petri dish with PBS and cut with a scalpel into pieces of approximately 5×5×5 mm. Recipient mice were anesthetized (isoflurane, 1-3% in ambient air supplemented with 100% O2) and an incision cut in the skin on the back. Room was made for the tumor between the muscle and skin with forceps. The tumor pieces were dipped in PBS before being placed under the skin with forceps. The incision was closed with a 7 mm wound clip. Another incision was cut in the skin on the back, where a testosterone rod was inserted subcutaneously with forceps (PreclinApps, Testosterone MedRod 75 μg/day, drug release duration 100 days). The incision was closed with non-absorbable prolene 5-0 sutures and animals were chipped for identification and allowed to recover from anesthesia. Tumor growth and animal weight were measured twice a week starting 7 days after inoculation. Tumor size was measured by caliper and the volume was estimated using the following formula 0.52×(length×width^2).
6-7 weeks after inoculation, three mice with ST1273 PDX tumors were dosed with ^177Lu-PSM-0194 and were subjected to SPECT/computed tomography scans. Tumor size measurement was continued for 42 days after dosing. In brief, PSM-0194 was labeled with radioactive Lutetium-177 with a molar activity of 30 MBq/nmol. An activity dose of 30 MBq per mouse was injected intravenously. The mice injected with ^177Lu—PSM-0194 underwent SPECT/computed tomography scans at 4, 24, and 72 hours p.i. to evaluate the distribution of ^177Lu-PSM-0194 in different tissues. Regions of interest (ROI) were drawn based on computed tomography images for the tumor and following organs: heart (estimate of blood), kidney (left), kidney (right), and tail. Uptake of ^177Lu-PSM-0194 (% ID/g, decay-corrected) in the corresponding ROI was determined by quantitative imaging analysis. […] Highest uptake in non-tumor organs was found in the kidneys with a favorable tumor-to-kidney ratio of 3.3-3.4.
The tumor size measurements were continued for 42 days after dosing. The effect of therapy ^177Lu—PSM-0194 on the tumor volume was evaluated for each individual mouse. […] Tumor volume continued declining to a nadir on day 20, with a mean tumor volume (MTV) of 16±16 mm^3 (mean SEM). […] For the calculation of relative volumes, the tumor volumes on the day of dosing (day 0) were set to 100%.

[2] = molecular target: T1, Fc-fusion protein of human PSMA (hPSMA-Fc) (Homo sapiens, UniProt Q04609); assay: Surface plasmon resonance assay (Biacore T200, single cycle kinetic); assay type: binding; conditions: SPR, hPSMA-Fc, single cycle kinetic, 25° C.; category; read-out: pKD CAT (converted)
T1 construct: purchased Acro Biosystems PSA-H5264
T1 sequence (Q04609 44-750 limits assumed): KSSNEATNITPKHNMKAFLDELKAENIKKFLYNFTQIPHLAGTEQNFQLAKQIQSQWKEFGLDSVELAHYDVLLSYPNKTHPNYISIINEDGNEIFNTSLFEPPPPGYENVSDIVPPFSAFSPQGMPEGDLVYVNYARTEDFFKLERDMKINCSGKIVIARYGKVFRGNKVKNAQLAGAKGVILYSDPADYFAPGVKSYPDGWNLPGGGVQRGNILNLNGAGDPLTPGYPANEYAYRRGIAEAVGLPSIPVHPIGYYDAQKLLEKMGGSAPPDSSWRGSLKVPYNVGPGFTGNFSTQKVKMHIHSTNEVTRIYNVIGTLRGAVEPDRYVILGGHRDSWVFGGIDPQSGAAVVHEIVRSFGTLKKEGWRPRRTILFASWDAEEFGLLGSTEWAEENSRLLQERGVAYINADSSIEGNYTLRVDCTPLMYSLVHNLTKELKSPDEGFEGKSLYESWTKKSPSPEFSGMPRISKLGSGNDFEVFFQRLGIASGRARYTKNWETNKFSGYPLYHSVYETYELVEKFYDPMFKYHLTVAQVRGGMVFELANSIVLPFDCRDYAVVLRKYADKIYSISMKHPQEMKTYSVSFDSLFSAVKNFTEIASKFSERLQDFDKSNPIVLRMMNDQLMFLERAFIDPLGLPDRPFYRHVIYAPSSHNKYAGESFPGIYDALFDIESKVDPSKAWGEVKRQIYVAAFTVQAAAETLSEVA
Method in brief: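 KD, expressed as pKD, came from 1:1 Langmuir fits of reference- and buffer-blank-subtracted SPR data. The runs were single-cycle kinetics at 25° C in HBST/0.1% DMSO over human PSMA-Fc, captured to ~1000 RU on a peptide-coated CM5 surface and regenerated with 10 mM glycine pH 1.5.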

[3] = molecular target: T2, PSMA-expressing C4-2 cells (Homo sapiens, UniProt Q04609); assay: FACS binding assay (competition with 50 nM PSM-0183); conditions: FACS binding, C4-2 cells, competition with 50 nM PSM-0183; category; read-out: pIC50 [C4-2] CAT (converted)
T2 construct: PSMA-expressing C4-2 cells (ATCC, Cat. No. CRL-3314) were cultured in RPMI-1640; host or cells: C4-2 cells
T2 sequence (Q04609 whole entry): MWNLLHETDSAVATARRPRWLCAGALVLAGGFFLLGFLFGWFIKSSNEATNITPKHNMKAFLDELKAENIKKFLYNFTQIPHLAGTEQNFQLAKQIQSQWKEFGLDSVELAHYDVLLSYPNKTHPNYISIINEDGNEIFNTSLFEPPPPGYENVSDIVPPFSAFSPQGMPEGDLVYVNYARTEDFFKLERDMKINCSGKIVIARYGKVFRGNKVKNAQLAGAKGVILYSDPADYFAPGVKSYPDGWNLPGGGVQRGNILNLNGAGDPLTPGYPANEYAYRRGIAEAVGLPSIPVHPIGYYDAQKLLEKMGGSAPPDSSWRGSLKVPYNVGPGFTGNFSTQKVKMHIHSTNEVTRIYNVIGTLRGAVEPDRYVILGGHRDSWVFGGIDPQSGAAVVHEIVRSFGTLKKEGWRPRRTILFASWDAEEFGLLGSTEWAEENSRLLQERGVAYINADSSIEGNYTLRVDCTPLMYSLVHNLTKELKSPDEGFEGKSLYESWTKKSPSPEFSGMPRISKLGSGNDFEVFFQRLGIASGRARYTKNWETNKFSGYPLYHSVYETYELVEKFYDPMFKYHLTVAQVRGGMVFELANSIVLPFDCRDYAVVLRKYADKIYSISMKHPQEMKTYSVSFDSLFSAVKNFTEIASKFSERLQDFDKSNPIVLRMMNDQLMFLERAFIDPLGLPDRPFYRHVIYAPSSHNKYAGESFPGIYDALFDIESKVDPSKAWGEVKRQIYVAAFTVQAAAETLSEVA
Method in brief: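 Competition format: fluorescent tracer PSM-0183 (50 nM) displaced from PSMA on C4-2 cells by a test compound titration over 1 h at 4 °C. Bound tracer was quantified as flow-cytometric AF488 median fluorescence after washing. Four-parameter logistic fits of MFI data gave IC50 and pIC50.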

SMILES: CNCCCC[C@@H]1NC(=O)[C@@H](NC(=O)[C@H](Cc2ccc(Cl)cc2)NC(=O)C(C)(C)NC(=O)[C@@H](NC(=O)CC2CCN(C(=O)CN3CCN(CC(=O)O)CCN(CC(=O)O)CCN(CC(=O)O)CC3)CC2)[C@@H](C)O)CSSC[C@@H](C(=O)N[C@H](C(=O)N[C@H](C(N)=O)[C@@H](C)O)C(C)(C)C)NC(=O)[C@H](CC(N)=O)NC(=O)C(C)(C)NC(=O)[C@H](CCCNC(=N)NC)NC1=O [^177Lu-PSM-0194, metal not drawn] ({DOTA}-[X1]T[Aib][Phe(4-Cl)]C[Lys(Me)][Arg(Me)][Aib]NC[Tle]T-NH2; disulfide 5-10)
- effect of therapy on the tumor volume ([1]; ST1273 PDX mice, 30 MBq i.v., followed 42 days after dosing): reduction of the tumor volumes; also recorded: strong tumor regression and sustained tumor suppression
- start of re-growth of the tumor ([1]; animal M10, 30 MBq i.v.): 23 days
- tumor volume ([1]; animal M10, day 42 after dosing, 30 MBq i.v.): 407 mm^3
- mean tumor volume (MTV) at nadir ([1]; day 20 after dosing, 30 MBq i.v., three mice, mean SEM): 16±16 mm^3
- Tumor volumes ([1]; mouse M9, study day 2): 390 mm^3
- Relative tumor volume ([1]; mouse M9, study day 2, day 0 = 100%): 112%
- Tumor volumes ([1]; mouse M9, study day 6): 124 mm^3
- Relative tumor volume ([1]; mouse M9, study day 6, day 0 = 100%): 36%
- Tumor volumes ([1]; mouse M9, study day 9): 65 mm^3
- Relative tumor volume ([1]; mouse M9, study day 9, day 0 = 100%): 19%
- Tumor volumes ([1]; mouse M9, study day 13): 31 mm^3
- Relative tumor volume ([1]; mouse M9, study day 13, day 0 = 100%): 9.0%
- Tumor volumes ([1]; mouse M9, study day 16): 43 mm^3
- Relative tumor volume ([1]; mouse M9, study day 16, day 0 = 100%): 12%
- Tumor volumes ([1]; mouse M9, study day 20): 0 mm^3
- Relative tumor volume ([1]; mouse M9, study day 20, day 0 = 100%): 0.0%
- Tumor volumes ([1]; mouse M9, study day 23): 0 mm^3
- Relative tumor volume ([1]; mouse M9, study day 23, day 0 = 100%): 0.0%
- Tumor volumes ([1]; mouse M9, study day 27): 0 mm^3
- Relative tumor volume ([1]; mouse M9, study day 27, day 0 = 100%): 0.0%
- Tumor volumes ([1]; mouse M9, study day 30): 0 mm^3
- Relative tumor volume ([1]; mouse M9, study day 30, day 0 = 100%): 0.0%
- Tumor volumes ([1]; mouse M9, study day 34): 0 mm^3
- Relative tumor volume ([1]; mouse M9, study day 34, day 0 = 100%): 0.0%
- Tumor volumes ([1]; mouse M9, study day 37): 0 mm^3
- Relative tumor volume ([1]; mouse M9, study day 37, day 0 = 100%): 0.0%
- Tumor volumes ([1]; mouse M9, study day 41): 0 mm^3
- Relative tumor volume ([1]; mouse M9, study day 41, day 0 = 100%): 0.0%
- Tumor volumes ([1]; mouse M9, study day 42): 0 mm^3
- Relative tumor volume ([1]; mouse M9, study day 42, day 0 = 100%): 0.0%
- Tumor volumes ([1]; mouse M10, study day 2): 633 mm^3
- Relative tumor volume ([1]; mouse M10, study day 2, day 0 = 100%): 134%
- Tumor volumes ([1]; mouse M10, study day 6): 372 mm^3
- Relative tumor volume ([1]; mouse M10, study day 6, day 0 = 100%): 79%
- Tumor volumes ([1]; mouse M10, study day 9): 346 mm^3
- Relative tumor volume ([1]; mouse M10, study day 9, day 0 = 100%): 73%
- Tumor volumes ([1]; mouse M10, study day 13): 242 mm^3
- Relative tumor volume ([1]; mouse M10, study day 13, day 0 = 100%): 51%
- Tumor volumes ([1]; mouse M10, study day 16): 94 mm^3
- Relative tumor volume ([1]; mouse M10, study day 16, day 0 = 100%): 20%
- Tumor volumes ([1]; mouse M10, study day 20): 49 mm^3
- Relative tumor volume ([1]; mouse M10, study day 20, day 0 = 100%): 10%
- Tumor volumes ([1]; mouse M10, study day 23): 66 mm^3
- Relative tumor volume ([1]; mouse M10, study day 23, day 0 = 100%): 14%
- Tumor volumes ([1]; mouse M10, study day 27): 113 mm^3
- Relative tumor volume ([1]; mouse M10, study day 27, day 0 = 100%): 24%
- Tumor volumes ([1]; mouse M10, study day 30): 114 mm^3
- Relative tumor volume ([1]; mouse M10, study day 30, day 0 = 100%): 24%
- Tumor volumes ([1]; mouse M10, study day 34): 172 mm^3
- Relative tumor volume ([1]; mouse M10, study day 34, day 0 = 100%): 36%
- Tumor volumes ([1]; mouse M10, study day 37): 289 mm^3
- Relative tumor volume ([1]; mouse M10, study day 37, day 0 = 100%): 61%
- Tumor volumes ([1]; mouse M10, study day 41): 608 mm^3
- Relative tumor volume ([1]; mouse M10, study day 41, day 0 = 100%): 129%
- Tumor volumes ([1]; mouse M10, study day 42): 607 mm^3
- Relative tumor volume ([1]; mouse M10, study day 42, day 0 = 100%): 129%
- Tumor volumes ([1]; mouse M12, study day 2): 476 mm^3
- Relative tumor volume ([1]; mouse M12, study day 2, day 0 = 100%): 53%
- Tumor volumes ([1]; mouse M12, study day 6): 427 mm^3
- Relative tumor volume ([1]; mouse M12, study day 6, day 0 = 100%): 47%
- Tumor volumes ([1]; mouse M12, study day 9): 196 mm^3
- Relative tumor volume ([1]; mouse M12, study day 9, day 0 = 100%): 23%
- Tumor volumes ([1]; mouse M12, study day 13): 82 mm^3
- Relative tumor volume ([1]; mouse M12, study day 13, day 0 = 100%): 9.1%
- Tumor volumes ([1]; mouse M12, study day 16): 109 mm^3
- Relative tumor volume ([1]; mouse M12, study day 16, day 0 = 100%): 12%
- Tumor volumes ([1]; mouse M12, study day 20): 0 mm^3
- Relative tumor volume ([1]; mouse M12, study day 20, day 0 = 100%): 0.0%
- Tumor volumes ([1]; mouse M12, study day 23): 55 mm^3
- Relative tumor volume ([1]; mouse M12, study day 23, day 0 = 100%): 6.1%
- Tumor volumes ([1]; mouse M12, study day 27): 56 mm^3
- Relative tumor volume ([1]; mouse M12, study day 27, day 0 = 100%): 6.2%
- Tumor volumes ([1]; mouse M12, study day 30): 58 mm^3
- Relative tumor volume ([1]; mouse M12, study day 30, day 0 = 100%): 6.4%
- Tumor volumes ([1]; mouse M12, study day 34): 47 mm^3
- Relative tumor volume ([1]; mouse M12, study day 34, day 0 = 100%): 5.2%
- Tumor volumes ([1]; mouse M12, study day 37): 67 mm^3
- Relative tumor volume ([1]; mouse M12, study day 37, day 0 = 100%): 7.4%
- Tumor volumes ([1]; mouse M12, study day 41): 74 mm^3
- Relative tumor volume ([1]; mouse M12, study day 41, day 0 = 100%): 8.2%
- Tumor volumes ([1]; mouse M12, study day 42): 81 mm^3
- Relative tumor volume ([1]; mouse M12, study day 42, day 0 = 100%): 9.0%

- Kd [2]: 12.6 to 126 nM
- IC50 [3]: < 200 nM
SMILES: CCCC[C@H](NC(=O)[C@@H]1CSSC[C@H](NC(=O)[C@H](Cc2ccccc2)NC(=O)[C@H](C)NC(=O)[C@@H](NC(C)=O)[C@@H](C)O)C(=O)N[C@@H](CCCCN)C(=O)N[C@@H](CCCNC(=N)N)C(=O)N[C@@H](CCC(=O)O)C(=O)N[C@@H](CC(N)=O)C(=O)N1)C(=O)N[C@@H](C(=O)N[C@H](CC(=O)O)C(N)=O)[C@H](C)O [PSM-0197, Ac-Thr-Ala-Phe-[Cys-Lys-Arg-Glu-Asn-Cys]-Nle-Thr-Asp-NH2] (Ac-TAFCKRENC[Nle][dT][dD]-NH2; disulfide 4-9)
